Literature values, collected in US20220313139A1, “APPARATUSES AND METHODS FOR IDENTIFICATION AND TREATMENT OF PATIENTS RESPONSIVE TO ANTIPSYCHOTIC AGENT THERAPY” (priority 2019, published 2022).

Legend:
patients [1] = details: clinical studies, halted
patients [2] = details: early phase II monotherapy trial
[3] = in humans

| SMILES | efficacy versus placebo as determined with PANSS total scores (patients [1]) | dosage shown to be efficacious (patients [2]) | oral absorption and bioavailability [3] |
| --- | --- | --- | --- |
| CSCC[C@H](N)C(=O)N[C@@]1(C(=O)O)CS(=O)(=O)[C@H]2[C@H](C(=O)O)[C@H]21 [poma, Pomaglumetad methionil] | not significantly more efficacious than the placebo | 40 mg BID | – |
| N[C@@]1(C(=O)O)CS(=O)(=O)[C@H]2[C@H](C(=O)O)[C@H]21 [pomaglumetad] | – | – | low oral absorption and bioavailability |
